Reference: US10278971B2, “Fluorocyclopentenylcytosine methods of use” (Rexahn Pharmaceuticals, Inc., priority 2015, dated 2019)
Where two headings read alike, the source gives them in different places.

How the values were obtained:
H460 = experiment: Cell cycle distribution by flow cytometry (PI); format: cell-based, human; conditions: H460, 1 μM, 24 hour exposure
Method: The effect of RX-3117 on cell cycle regulation and cell death in human non-small cell lung cancer (NSCLC) cell lines A549 (adenocarcinoma), SW1573 (alveolar carcinoma) and SW1573/G- (SW1573 cell line resistant to gemcitabine) and H460 (large cell carcinoma) was assessed. The A549 and H460 cell lines were obtained from American Type Culture Collection (Manassas, Va., USA). The SW1573 cell line, obtained from Dr. Johan van Rijn (see Keiser et al., Cancer Research, 49:2988-2993 (1989)), also served as the parental cell line for SW1573/G-. A549, SW1573, and SW1573/G- and H460 were kept in exponential growth in T25 flasks (Greiner Bio-One GmbH, Frickenhausen, Germany) and cultured in Dulbecco's minimal essential medium (DMEM) or RPMI 1640 (A549) supplemented with 10% heat-inactivated fetal bovine serum (FBS) 1% streptomycin and penicillin 20 mM HEPES and maintained in 37° C. water saturated atmospheres of 5% CO2. For the cell cycle distribution, 1.5×10^5 cells were seeded in a T25 flask (Greiner Bio-One GmbH) and cultured for 72 hours after which 1 μM of RX-3117 was added and incubated for 24 hours. The cells were then harvested. After the treatment, the medium was collected in a 15 ml tube (Greiner Bio-One GmbH). […] The cells stained with the PI solution were analyzed by FACSCalibur™ (BD Biosciences, Mount View, Calif., USA). Data was analyzed with CellQuest™ Pro software.

[1] = First-in-human study: pharmacokinetics, safety and tolerability; format: in vivo; conditions: for Cmax / Tmax / half-life / bioavailability: both sexes, human, plasma; for bioavailability: n=3, read-out: absolute bioavailability (F)
Method: In a first-in-human, open-label, exploratory study, the pharmacokinetics, safety and tolerability of RX-3117 were evaluated. The study duration was 14-15 days (7-day screening period; 3-day treatment period; 4 (+1)-day safety follow-up period). Nine adult male and female subjects with histologically confirmed, solid tumors enrolled in and completed the study. The subjects received RX-3117 (n=3 subjects per dose) as a single oral dose (50 mg or 100 mg) or a single intravenous dose (20 mg).

With `Nc1ccn([C@@H]2C(F)=C(CO)[C@@H](O)[C@H]2O)c(=O)n1` [RX-3117, 4-amino-1-((1S,4R,5S)-2-fluoro-4,5-dihydroxy-3-hydroxymethyl-cyclopent-2-enyl)-1H-pyrimidin-2-one] the “accumulation of cells in the G1 phase” value (H460) was “induced accumulation”, the “increased accumulation of cells in the G1 phase” value (H460) was 20-40% and the “increase of intravenous Cmax over the peak concentrations of the oral doses” value ([1]; 20 mg intravenous vs 50 and 100 mg oral) was about 4 fold. It also gave a Cmax ([1]; single intravenous dose 20 mg) of 1140 ng/mL, a Tmax ([1]; single intravenous dose 20 mg, read-out: Tmax) of 0.25 h and a Cmax ([1]; single oral dose 50 mg) of 303 ng/mL. It also gave a half-life ([1]; single oral dose 50 mg) of 13.9 h, a bioavailability ([1]; single oral dose 50 mg) of 55.7% and a Tmax ([1]; single oral dose 50 mg, read-out: mean Tmax) of 2.16 h. It also gave a Cmax ([1]; single oral dose 100 mg) of 311 ng/mL, a half-life ([1]; single oral dose 100 mg) of 20.9 h and a bioavailability ([1]; single oral dose 100 mg) of 33.4%. The Tmax ([1]; single oral dose 100 mg, read-out: mean Tmax) was 2.49 h, the “adverse events (AE, TEAE, SAE)” value ([1]; single 50 or 100 mg oral or 20 mg intravenous dose) was “No adverse event” and the safety and tolerability ([1]; single 50 or 100 mg oral or 20 mg intravenous dose, all subjects) was “safe and well-tolerated”.
